Data published in patent publication US8198293B2, “Oxymatrine compositions and related methods for treating and preventing chronic infectious diseases” (priority 2008, dated 2012).

Tests used:
[1] = tested on: enterovirus infection (ME/CFS patients); assay: Oxymatrine open-label, controlled clinical study in ME/CFS patients with enterovirus infection; assay type: in vivo, human
Description: An open-label, controlled study was conducted on patients who fulfilled the international criteria for myalgic encephalomyelitis (ME)/chronic fatigue syndrome (CFS) and had virological evidence of enterovirus infection.
One hundred patients took oxymatrine at dose of 200-300 mg twice a day with or without food for a minimum of three months. Patients who could not complete the course due to side effects or intolerance were considered as failures (intent-to-treat analysis). Of the first group, 52% ( 52/100) responded to oxymatrine, as compared to 6% ( 7/114) of the control groups (p<0.000001, x^2 test). Of the next 104 patients, 52% responded to treatment. […] Fifty-three percent ( 57/107) of patients with elevated coxsackie virus B (CVB) and echovirus (Ech) antibody responded to therapy and 50% ( 49/97) of patients with non-typeable EV infections improved (NS, x^2 test). Fifty-two percent ( 47/91) of patients with positive EV protein in stomach biopsies responded, whereas 56% ( 5/9) of patients with negative biopsies responded (NS, x^2 test).
Relapse of symptoms was common after discontinuing oxymatrine. Fifty-nine percent ( 19/32) of patients (4 male, 15 female) relapsed within two days to one month after discontinuation of oxymatrine. Eighty-seven percent ( 13/15) of patients who relapsed responded to restart of oxymatrine. Subsequent responders were continued on oxymatrine beyond six months.
A small percentage ( 2/204) of patients had transient increase in potassium, which returned to normal without specific treatment. A small percentage of patients ( 2/204) had elevated blood pressure that prompted discontinuation of therapy. […] Transient, moderate increase in pre-existing symptoms were reported by more than 50% of the patients but most patients continued to take the herbs at the same or reduced dose. Twenty patients (10%) stopped oxymatrine within the first eight weeks due to intolerable side effects. […]

[2] = tested on: Varicella-Zoster Virus (VZV); assay: Case report: chronic recurrent Varicella-Zoster Virus infection (shingles); assay type: in vivo, human; settings: Example 9 patient, 200 mg bid
Description: A person developed recurrent shingles after multiple episodes of sinus infections and sinus surgeries. They also had chronic indigestion and nausea. Fatigue became so severe that they were bedridden for several years.
Coxsackievirus B4 antibody was 1:320. […] The patient was started on oxymatrine 200 mg bid.

enterovirus = assay: Case reports: diarrhea with viral/enterovirus protein in colon biopsy (Examples 11, 12); assay type: in vivo, human
Description: A person developed continuing watery diarrhea, as many as twenty episodes a day, and mild fatigue for three months. Laboratory studies and stool work-up were completely negative. […] They failed Asacol therapy.
A person developed severe watery diarrhea for two months. Stool evaluation was unremarkable. […] They continued to do well for six months on the medication. A decrease of medication to half the dose cause a relapse of the symptoms, which resolved after increasing the dosage.

chronic hepatitis B = settings: oral, after one year of treatment; cited from earlier work
[3] = side effects in 176 patients having taken oxymatrine

## O=C1CCC[C@@H]2[C@H]3CCC[N@+]4([O-])CCC[C@@H](CN12)[C@@H]34 [oxymatrine]
[1]; 13/15
  relapsed patients who responded to restart of oxymatrine: Eighty-seven
[1]; 19/32, within two days to one month after discontinuation
  patients relapsed after discontinuation of oxymatrine: Fifty-nine
[1]; better tolerated when dose increased gradually over 2-3 weeks or longer
  duration of the increase in symptoms: a few days to several weeks
[1]; both, human, in vivo
  patients reporting transient, moderate increase in pre-existing symptoms: more than 50%
[1]; compared to baseline values
  changes of other chemistry parameters and complete blood counts (CBC): no significant changes
[1]; except variable increase of pre-existing symptoms during the first 1-2 days of maximal doses
  tolerability in most of the patients: tolerated oxymatrine well
[1]; first group (52/100), 200-300 mg twice a day, minimum three months, intent-to-treat, control 6% (7/114)
  patients responded to oxymatrine: 52%
[1]; human, in vivo
  serious complications during therapy: No serious complications
[1]; next 104 patients
  patients responded to treatment: 52%
[1]; of 204 patients
  patients with elevated blood pressure that prompted discontinuation of therapy: 2/204
[1]; of 204 patients, returned to normal without specific treatment
  patients with transient increase in potassium: 2/204
[1]; patients with elevated coxsackie virus B and echovirus antibody (57/107)
  patients responded to therapy: Fifty-three
[1]; patients with non-typeable EV infections (49/97)
  patients improved: 50%
[1]; patients with positive EV protein in stomach biopsies (47/91)
  patients responded: Fifty-two
[1]; [3]
  Diffuse rashes, % of total patients: <1%
  Dry eyes and mouth, % of total patients: 1%
  Fevers, % of total patients: 2%
  Herpes simplex virus outbreak after discontinuation, % of total patients: 1%
  Increase in blood pressure, % of total patients: 1%
  Increase in edema, % of total patients: 1%
  Increased abdominal pain, % of total patients: 6%
  Increased bladder symptoms, % of total patients: 2%
  Increased diarrhea, % of total patients: 4%
  Increased dizziness, % of total patients: 2%
  Increased fatigue, % of total patients: 4%
  Increased headache, % of total patients: 8%
  Increased insomnia, % of total patients: 1%
  Increased myalgia, % of total patients: 30%
  Increased nausea, % of total patients: 6%
  Increased palpitation, chest pain, % of total patients: 3%
  Increased polyarthralgia, % of total patients: 1%
  Increased sinus congestion, % of total patients: 3%
  Inflammation of skin lesion, % of total patients: 1%
  New rashes, % of total patients: <1%
  Seizure (petit mal), % of total patients: <1%
  Weight gain, % of total patients: 1%
[1]; toward the end of three months of medication
  outcome in one patient with severe increase in febrile response and marked worsening of symptoms: lasting remission
[1]; within the first eight weeks, twenty patients
  patients who stopped oxymatrine due to intolerable side effects: 10%
[2]
  outbreaks of shingles: less often and not as severe
[2]; three months
  clinical outcome: went back to full-time work
enterovirus; Example 11 patient, oxymatrine 200 mg bid
  diarrhea outcome: resolved completely in a few days
enterovirus; Example 12 patient
  diarrhea outcome: resolved within one week
Chronic hepatitis B
  overall cure rate: about 40%
